This is an account of results in patent US7655671B2, “Morphinan derivatives, the quaternary ammonium salts thereof substituted in position 14, method for production and use thereof” (priority 2002, dated 2010).

The target of one data set is T1, μ-opioid receptors (Rattus norvegicus, UniProt P33535).
T1 construct: from tissue; host or cells: rat brain homogenate
The data set can be described thus: Opioid receptor binding studies on rat's brain homogenisates with [3H]DAMGO.

Another data set concerns the target T2, μ-receptors (Mus musculus, UniProt P42866).
T2 construct: Vas Deferens Preparation of the Mouse; from tissue; host or cells: mouse vas deferens
Nature of the data set: Antagonistic activity in the vas deferens preparation of the mouse using DAMGO. Also on record: Ke (vM) (μ-receptors): unit not given here. In kind it is biochemical.

Data set [1] deals with mice. Nature of the data set: animal or person. It is filed as in vivo. The following applies: mouse tail flick test, subcutaneous application.
In another data set the test system is rats. Nature of the data set: Rat tail flick test (analgesia). It is filed as in vivo. The following applies: for ED50 (μg/rat, icv): rats of 120 g; for ED50: sc, read-out: ED50 (μg/kg, sc). The protocol:
To determine the analgesic activity of quaternised compounds, a test on rats, the “Rat Tail Flick Test”, was used. The test was carried out as described earlier (Zs. Fürst et al., Eur. J. Pharmacol. 1993; 236: 209-215).

Data set [2] concerns mice. The data set can be described thus: Hot-plate test (analgesia). It is filed as in vivo, mouse. The following applies: subcutaneous application. The protocol: A test on mice (“hot-plate test”) was carried out as described earlier (E. L. May et al., J. Med. Chem. 2000; 43, 5030-5036).
Background: In hot-plate and tail-flick tests a longer latency is read as antinociception.

Setting [3] is: [3H]DAMGO as radio-ligand, rat's brain homogenisates, read-out: Ki (nM) (μ-receptors).
[4] abbreviates: rat tail flick test, subcutaneous application.
Where [5] appears, read: rat tail flick test, intracerebroventricular application.

Like-named read-outs stand apart in the source and are kept apart here.

T1 sequence (P33535 whole entry): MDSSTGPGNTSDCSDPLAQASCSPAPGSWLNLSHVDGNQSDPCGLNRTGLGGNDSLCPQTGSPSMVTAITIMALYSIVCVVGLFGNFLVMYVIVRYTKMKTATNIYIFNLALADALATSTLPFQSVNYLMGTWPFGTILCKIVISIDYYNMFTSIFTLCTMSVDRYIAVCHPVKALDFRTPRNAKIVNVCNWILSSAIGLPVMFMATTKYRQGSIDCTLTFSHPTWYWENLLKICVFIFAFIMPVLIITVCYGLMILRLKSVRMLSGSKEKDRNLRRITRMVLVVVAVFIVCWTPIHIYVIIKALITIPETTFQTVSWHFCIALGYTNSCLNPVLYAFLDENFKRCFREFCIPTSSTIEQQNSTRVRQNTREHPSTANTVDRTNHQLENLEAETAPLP
T2 sequence (P42866 whole entry): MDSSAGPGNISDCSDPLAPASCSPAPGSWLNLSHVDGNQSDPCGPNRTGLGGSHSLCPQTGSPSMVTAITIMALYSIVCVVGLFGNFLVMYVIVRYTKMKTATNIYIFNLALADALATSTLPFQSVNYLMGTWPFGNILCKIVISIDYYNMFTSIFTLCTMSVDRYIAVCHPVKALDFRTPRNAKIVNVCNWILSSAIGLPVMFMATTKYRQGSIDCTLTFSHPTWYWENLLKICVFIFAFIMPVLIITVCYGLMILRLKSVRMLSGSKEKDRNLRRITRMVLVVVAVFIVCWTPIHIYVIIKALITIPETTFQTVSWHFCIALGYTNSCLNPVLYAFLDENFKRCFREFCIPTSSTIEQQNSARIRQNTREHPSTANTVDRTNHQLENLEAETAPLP

In the case of `COc1c(O)ccc2c1[C@]13CCN(CC4CC4)[C@H](C2)[C@]1(OC)CCC(=O)C3` [3-hydroxycyprodime, reference compound], the Ki at μ-opioid receptors (setting [3]) stood at 6.15 nM. Further, the “affinity to μ-opioid receptors (in words)” value at μ-opioid receptors ([3H]DAMGO, rat's brain homogenisates) is “clearly lower affinity”. In addition, the “Ke (vM) (μ-receptors)” value at μ-receptors (antagonistic Ke against DAMGO) was determined as 5.62.
With `CO[C@@]12CCC(=O)[C@]3(C)Oc4c(O)ccc5c4[C@@]31CCN(C)[C@@H]2C5` [14-methoxymetopon, reference compound], the inhibition constant Ki on μ-opioid receptors (setting [3]) was determined as 0.55 nM. Moreover, the “ED50 (μg/kg, sc)” value turned out to be 30 µg/kg in the data set with mice [1], 7.2 µg/kg in the data set on rats (setting [4]) and 30 µg/kg in the data set with mice [2].
For the molecule `COc1ccc2c3c1O[C@@]1(C)C(=O)CC[C@@]4(OCCCc5ccccc5)[C@@H](C2)N(C)CC[C@]314` [Compound 17a, 4,5α-epoxy-3-methoxy-5β,17-dimethyl-14β-[(3-phenylpropyl)oxy]morphinan-6-one], the melting point was 126 to 128 °C. Moreover, at μ-opioid receptors, the Ki turned out to be 0.62 nM. Besides, the ED50 in the data set on mice [1] (sc, read-out: ED50 (μg/kg, sc)) amounted to 4.4 µg/kg. Further, the ED50 with mice [2] (Mus musculus, sc, read-out: ED50 (μg/kg, sc)) is 2.6 µg/kg.
In turn, `C[N+]1(C)CC[C@]23c4c5ccc(O)c4O[C@H]2C(=O)CC[C@@]3(OCCCc2ccccc2)[C@H]1C5.[I-]` [Compound 38, 4,5α-epoxy-3-hydroxy-17,17-dimethyl-6-oxo-14β-[(3-phenylpropyl)oxy]morphinanium-iodide] yielded a melting point of 164 to 170 °C. Further, at μ-opioid receptors, the affinity corresponds to a Ki of 4.11 nM. Also, the “ED50 (μg/rat, icv)” value with rats (setting [5]) is on record as 12 μg/rat. Moreover, in the data set on rats (setting [4]), the “analgesic effect (in words)” value is reported as “very high analgesic effect” and the ED50 was 120 µg/kg.
Molecule `C=CC[N@@+]1(C)CC[C@]23c4c5ccc(O)c4O[C@H]2C(=O)CC[C@@]3(OC)[C@H]1C5.[I-]` [Compound 42, (17R)-17-allyl-4,5α-epoxy-3-hydroxy-14β-methoxy-17-methyl-6-oxomorphinanium-iodide] had a melting point of 178 to 181 °C. The molecule also came in with a Ki on μ-opioid receptors of 5.93 nM. Further, the “ability to overcome the blood-brain barrier” value in the data set on rats (inferred from icv versus sc activity) was “only to a limited degree”. In addition, in the data set on rats (setting [5]), the “analgesic activity (in words)” value is “extremely active” and the “ED50 (μg/rat, icv)” value was 0.22 μg/rat. Further, in the data set with rats (setting [4]), the “analgesic effect (in words)” value is “very high analgesic effect” and the ED50 is 16 µg/kg.
`C[N@+]1(CC2CC2)CC[C@]23c4c5ccc(O)c4O[C@H]2C(=O)CC[C@@]3(OCCCc2ccccc2)[C@H]1C5.[I-]` [Compound 48, (17R)-17-cyclopropylmethyl-4,5α-epoxy-3-hydroxy-17-methyl-6-oxo-14β-[(3-phenylpropyl)oxy]morphinanium-iodide] yielded a melting point of 175 to 176 °C. Besides, the Ki at μ-opioid receptors stood at 0.93 nM. Also, the “antagonistic activity to μ-opioid receptors (in words)” value at μ-receptors (DAMGO) is on record as “very high antagonistic activity”.
For the molecule `CN1CC[C@]23c4c5ccc(O)c4O[C@H]2[C@@H](O)C=C[C@H]3[C@H]1C5` [Morphine, reference compound], in the data set on rats (setting [4]), the ED50 came to 1900 µg/kg.

For orientation: Ki means a dissociation constant, usually derived from enzyme kinetics or from competition with a known ligand. A word on the melting point: it is the temperature of the solid-liquid transition.
